The assay deals with MV-4-11 cells. Put plainly: Gene expression microarray analysis (Affymetrix PrimeView) and GSEA. In kind it is cell-based, human. The arrangement: RFU PODN (11730768_x_at) / Fold change /veh PODN (11730768_x_at) / RFU LINC00158 (11744669_a_at) / Fold change /veh LINC00158 (11744669_a_at) / RFU DUSP10 (11751237_a_at) / Fold change /veh DUSP10 (11751237_a_at) / RFU ID3 (11757404_x_at) / Fold change /veh ID3 (11757404_x_at) / RFU PLEKHG5 (11737974_s_at) / Fold change /veh PLEKHG5 (11737974_s_at) / RFU LRRC4B (11730491_at) / Fold change /veh LRRC4B (11730491_at) / RFU GIMAP4 (11747438_a_at) / Fold change /veh GIMAP4 (11747438_a_at) / RFU KRT8 (11758183_x_at) / Fold change /veh KRT8 (11758183_x_at) / RFU CNN1 (11734310_a_at) / Fold change /veh CNN1 (11734310_a_at) / RFU VPS37D (11726825_at) / Fold change /veh VPS37D (11726825_at) / RFU C10orf10 (11716522_x_at) / Fold change /veh C10orf10 (11716522_x_at) / RFU KIR2DL2 /// KIR2DL4 /// KIR2DL5A /// KIR2DL5B /// KIR2DS1 /// KIR2DS2 /// KIR2DS3 /// KIR2DS4 /// KIR3DL3 /// KIR3DL3 /// KIR3DS1 (11738374_at) / Fold change /veh KIR2DL2 /// KIR2DL4 /// KIR2DL5A /// KIR2DL5B /// KIR2DS1 /// KIR2DS2 /// KIR2DS3 /// KIR2DS4 /// KIR3DL3 /// KIR3DL3 /// KIR3DS1 (11738374_at) / RFU C1QL1 (11718748_at) / Fold change /veh C1QL1 (11718748_at) / RFU TMPRSS4 (11747572_a_at) / Fold change /veh TMPRSS4 (11747572_a_at) / RFU HAMP (11756126_x_at) / Fold change /veh HAMP (11756126_x_at) / RFU RNFT2 (11725882_a_at) / Fold change /veh RNFT2 (11725882_a_at) / RFU NR4A2 (11747474_a_at) / Fold change /veh NR4A2 (11747474_a_at) / RFU ABCC12 (11746883_a_at) / Fold change /veh ABCC12 (11746883_a_at) / RFU TMEM136 (11760407_x_at) / Fold change /veh TMEM136 (11760407_x_at) / RFU CLDN22 /// WWC2 (11732394_at) / Fold change /veh CLDN22 /// WWC2 (11732394_at) / RFU HLA-DPB1 (11760878_x_at) / Fold change /veh HLA-DPB1 (11760878_x_at) / RFU SPINT1 (11716480_a_at) / Fold change /veh SPINT1 (11716480_a_at) / RFU GAP43 (11754022_s_at) / Fold change /veh GAP43 (11754022_s_at) / RFU A4GNT (11735810_at) / Fold change /veh A4GNT (11735810_at) / RFU PRB3 (11715151_x_at) / Fold change /veh PRB3 (11715151_x_at) / RFU TUBB4B (11761932_at) / Fold change /veh TUBB4B (11761932_at) / RFU CAPN14 (11732068_a_at) / Fold change /veh CAPN14 (11732068_a_at) / RFU TMCC2 (11721928_a_at) / Fold change /veh TMCC2 (11721928_a_at) / RFU IRGQ (11745062_a_at) / Fold change /veh IRGQ (11745062_a_at) / RFU FAM174B (11720279_a_at) / Fold change /veh FAM174B (11720279_a_at) / RFU TMPRSS4 (11748680_a_at) / Fold change /veh TMPRSS4 (11748680_a_at) / RFU FAM212B (11763350_a_at) / Fold change /veh FAM212B (11763350_a_at) / RFU PLEKHG5 (11743358_a_at) / Fold change /veh PLEKHG5 (11743358_a_at) / RFU ZSCAN30 (11745921_a_at) / Fold change /veh ZSCAN30 (11745921_a_at) / RFU CMKLR1 (11741424_a_at) / Fold change /veh CMKLR1 (11741424_a_at) / RFU LOC101060620 /// MAPK8IP1 (11723275_at) / Fold change /veh LOC101060620 /// MAPK8IP1 (11723275_at) / RFU SPTSSB (11747773_x_at) / Fold change /veh SPTSSB (11747773_x_at) / RFU PRSS12 (11739890_at) / Fold change /veh PRSS12 (11739890_at) / RFU BIN1 (11741810_x_at) / Fold change /veh BIN1 (11741810_x_at) / RFU WNT11 (11732464_a_at) / Fold change /veh WNT11 (11732464_a_at) / RFU C10orf10 (11716521_a_at) / Fold change /veh C10orf10 (11716521_a_at) / RFU C5orf56 (11738089_at) / Fold change /veh C5orf56 (11738089_at) / RFU CYB561 (11721691_x_at) / Fold change /veh CYB561 (11721691_x_at) / RFU ANKRD19P (11752326_a_at) / Fold change /veh ANKRD19P (11752326_a_at) / RFU OR2T12 /// OR2T33 /// OR2T8 (11738714_s_at) / Fold change /veh OR2T12 /// OR2T33 /// OR2T8 (11738714_s_at) / RFU VCAN (11748164_a_at) / Fold change /veh VCAN (11748164_a_at) / RFU JSRP1 (11732532_at) / Fold change /veh JSRP1 (11732532_at) / RFU KRTAP10-11 (11738290_x_at) / Fold change /veh KRTAP10-11 (11738290_x_at) / RFU MYO3A (11730013_a_at) / Fold change /veh MYO3A (11730013_a_at) / RFU EBF3 (11725865_a_at) / Fold change /veh EBF3 (11725865_a_at) / RFU CAMK2N1 (11719241_x_at) / Fold change /veh CAMK2N1 (11719241_x_at) / RFU C5orf56 (11738088_a_at) / Fold change /veh C5orf56 (11738088_a_at) / RFU OLFML3 (11715873_a_at) / Fold change /veh OLFML3 (11715873_a_at) / RFU LOC100653217 /// NTM (11731650_a_at) / Fold change /veh LOC100653217 /// NTM (11731650_a_at) / RFU MAPK11 (11762145_a_at) / Fold change /veh MAPK11 (11762145_a_at) / RFU FIZ1 (11724087_x_at) / Fold change /veh FIZ1 (11724087_x_at) / RFU OASL (11726364_x_at) / Fold change /veh OASL (11726364_x_at) / RFU SOX15 (11748057_x_at) / Fold change /veh SOX15 (11748057_x_at) / RFU CD79A (11719716_a_at) / Fold change /veh CD79A (11719716_a_at) / RFU HIST1H1D (11736915_at) / Fold change /veh HIST1H1D (11736915_at) / RFU CASKIN2 (11723855_a_at) / Fold change /veh CASKIN2 (11723855_a_at) / RFU LOC730098 (11760151_x_at) / Fold change /veh LOC730098 (11760151_x_at) / RFU OR4N2 (11742367_at) / Fold change /veh OR4N2 (11742367_at) / RFU PRRT2 (11749266_a_at) / Fold change /veh PRRT2 (11749266_a_at) / RFU SNX32 (11753110_a_at) / Fold change /veh SNX32 (11753110_a_at) / RFU CDHR5 (11726645_a_at) / Fold change /veh CDHR5 (11726645_a_at) / RFU RCAN1 (11760418_a_at) / Fold change /veh RCAN1 (11760418_a_at) / RFU FAM167A (11723789_a_at) / Fold change /veh FAM167A (11723789_a_at) / RFU FAM26E (11764081_at) / Fold change /veh FAM26E (11764081_at) / RFU ISYNA1 (11749810_s_at) / Fold change /veh ISYNA1 (11749810_s_at) / RFU ACY1 (11761880_at) / Fold change /veh ACY1 (11761880_at) / RFU 11764098_at / Fold change /veh 11764098_at / RFU SAMD14 (11745864_x_at) / Fold change /veh SAMD14 (11745864_x_at) / RFU NPB (11741838_a_at) / Fold change /veh NPB (11741838_a_at) / RFU TMPRSS6 (11731388_a_at) / Fold change /veh TMPRSS6 (11731388_a_at) / RFU KRTAP10-2 (11738614_at) / Fold change /veh KRTAP10-2 (11738614_at) / RFU ARHGAP8 /// PRR5-ARHGAP8 (11727945_x_at) / Fold change /veh ARHGAP8 /// PRR5-ARHGAP8 (11727945_x_at) / RFU KRTAP5-7 /// NADSYN1 (11734609_at) / Fold change /veh KRTAP5-7 /// NADSYN1 (11734609_at) / RFU RASL12 (11751679_a_at) / Fold change /veh RASL12 (11751679_a_at) / RFU CDKN2B (11736163_a_at) / Fold change /veh CDKN2B (11736163_a_at) / RFU PRF1 (11729649_at) / Fold change /veh PRF1 (11729649_at) / RFU, ZNF638 /// ZNF638-IT1 / Fold change vs veh, ZNF638 /// ZNF638-IT1 / RFU, PANK3 / Fold change vs veh, PANK3 / RFU, SH3YL1 / Fold change vs veh, SH3YL1 / RFU, ZEB2 / Fold change vs veh, ZEB2 / RFU, NRIP1 / Fold change vs veh, NRIP1 / RFU, PTTG1IP / Fold change vs veh, PTTG1IP / RFU, CAPN2 / Fold change vs veh, CAPN2 / RFU, MED14 / Fold change vs veh, MED14 / RFU, SNORA58 / Fold change vs veh, SNORA58 / RFU, C1orf63 / Fold change vs veh, C1orf63 / RFU, LRRFIP1 / Fold change vs veh, LRRFIP1 / RFU, NDUFAF7 / Fold change vs veh, NDUFAF7 / RFU, SLC12A2 / Fold change vs veh, SLC12A2 / RFU, IBTK / Fold change vs veh, IBTK / RFU, ESF1 / Fold change vs veh, ESF1 / Fold change vs veh, TMEM50B / RFU, TAOK1 / Fold change vs veh, TAOK1 / RFU, ACBD3 / Fold change vs veh, ACBD3 / RFU, TMA16 / Fold change vs veh, TMA16 / RFU, RWDD3 / Fold change vs veh, RWDD3 / RFU, BCAT1 / Fold change vs veh, BCAT1 / RFU, EDEM3 / Fold change vs veh, EDEM3 / RFU, TMEM33 / Fold change vs veh, TMEM33 / RFU, WDR75 / Fold change vs veh, WDR75 / RFU, AHCTF1 / Fold change vs veh, AHCTF1 / RFU, TFRC / Fold change vs veh, TFRC / RFU, ZDHHC17 / Fold change vs veh, ZDHHC17 / RFU, NOM1 / Fold change vs veh, NOM1 / RFU, ARL8B / Fold change vs veh, ARL8B / RFU, ZBTB11 / Fold change vs veh, ZBTB11 / RFU, TAMM41 / Fold change vs veh, TAMM41 / RFU, KIAA1704 /// LOC100996395 / Fold change vs veh, KIAA1704 /// LOC100996395 / RFU, ING1 / Fold change vs veh, ING1 / RFU, TRMT61B / Fold change vs veh, TRMT61B / RFU, FUBP3 / Fold change vs veh, FUBP3 / RFU, TP53 / Fold change vs veh, TP53 / RFU, TNKS2 / Fold change vs veh, TNKS2 / RFU, ZFP14 / Fold change vs veh, ZFP14 / RFU, ACTR2 / Fold change vs veh, ACTR2 / RFU, PPP3R1 / Fold change vs veh, PPP3R1 / RFU, PIK3R1 / Fold change vs veh, PIK3R1 / RFU, HNRNPA1 / Fold change vs veh, HNRNPA1 / RFU, RNF170 / Fold change vs veh, RNF170 / RFU, ZNF28 / Fold change vs veh, ZNF28 / RFU, RNGTT / Fold change vs veh, RNGTT / RFU, OGT / Fold change vs veh, OGT / RFU, BRD1 / Fold change vs veh, BRD1 / RFU, MARS / Fold change vs veh, MARS / RFU, ZNF655 / Fold change vs veh, ZNF655 / RFU, FAHD1 / Fold change vs veh, FAHD1 / RFU, BDP1 / Fold change vs veh, BDP1 / RFU, LRRCC1 / Fold change vs veh, LRRCC1 / RFU, ARID1A / Fold change vs veh, ARID1A / RFU, ZNF146 / Fold change vs veh, ZNF146 / RFU, ZNF330 / Fold change vs veh, ZNF330 / RFU, GPN3 / Fold change vs veh, GPN3 / RFU, C9orf123 / Fold change vs veh, C9orf123 / RFU, N4BP2L2 / Fold change vs veh, N4BP2L2 / RFU, ARFIP1 / Fold change vs veh, ARFIP1 / RFU, FAM179B / Fold change vs veh, FAM179B / RFU, BCL10 / Fold change vs veh, BCL10 / RFU, UHRF1BP1L / Fold change vs veh, UHRF1BP1L / RFU, BET1 / Fold change vs veh, BET1 / RFU, CNOT2 / Fold change vs veh, CNOT2 / RFU, ZNF268 / Fold change vs veh, ZNF268 / Fold change vs veh, ZNF507 / RFU, DGCR2 / Fold change vs veh, DGCR2 / RFU, WDSUB1 / Fold change vs veh, WDSUB1 / Fold change vs veh, HSP90B1 /// MIR3652 / RFU, ADSS / Fold change vs veh, ADSS / RFU, GK / Fold change vs veh, GK / RFU, ZNF148 / Fold change vs veh, ZNF148 / RFU, TAF9 / Fold change vs veh, TAF9 / RFU, SLC1A5 / Fold change vs veh, SLC1A5 / RFU, SLMO2 / Fold change vs veh, SLMO2 / RFU, ABCC4 / Fold change vs veh, ABCC4 / RFU, LOC101060439 /// RAP1B / Fold change vs veh, LOC101060439 /// RAP1B / RFU, RFX7 / Fold change vs veh, RFX7 / RFU, GTPBP10 / Fold change vs veh, GTPBP10 / RFU, CNEP1R1 / Fold change vs veh, CNEP1R1 / RFU, BIVM-ERCC5 /// ERCC5 / Fold change vs veh, BIVM-ERCC5 /// ERCC5 / RFU, ILF3 / Fold change vs veh, ILF3 / RFU 11762660_at / Fold change /veh 11762660_at / RFU VCAN (11757783_s_at) / Fold change /veh VCAN (11757783_s_at) / RFU DDX43 (11728927_at) / Fold change /veh DDX43 (11728927_at) / RFU KRT8 (11758188_x_at) / Fold change /veh KRT8 (11758188_x_at) / RFU NKD1 (11759106_at) / Fold change /veh NKD1 (11759106_at) / RFU SRD5A1 (11742802_a_at) / Fold change /veh SRD5A1 (11742802_a_at) / RFU TPSAB1 /// TPSB2 (11721975_s_at) / Fold change /veh TPSAB1 /// TPSB2 (11721975_s_at) / RFU GSTM3 (11746129_a_at) / Fold change /veh GSTM3 (11746129_a_at) / RFU IL23R (11737362_x_at) / Fold change /veh IL23R (11737362_x_at) / RFU TMEM51 (11727254_a_at) / Fold change /veh TMEM51 (11727254_a_at) / RFU PIWIL2 (11732686_x_at) / Fold change /veh PIWIL2 (11732686_x_at) / RFU ORM1 (11744905_x_at) / Fold change /veh ORM1 (11744905_x_at) / RFU CCDC152 (11743942_at) / Fold change /veh CCDC152 (11743942_at) / RFU ECM1 (11717891_a_at) / Fold change /veh ECM1 (11717891_a_at) / RFU IL23R (11748794_a_at) / Fold change /veh IL23R (11748794_a_at) / RFU TNFAIP8L3 (11732012_x_at) / Fold change /veh TNFAIP8L3 (11732012_x_at) / RFU MBOAT4 (11741988_at) / Fold change /veh MBOAT4 (11741988_at) / RFU 11764193_at / Fold change /veh 11764193_at / RFU TMEM53 (11763286_at) / Fold change /veh TMEM53 (11763286_at) / RFU MAGEB2 (11727129_at) / Fold change /veh MAGEB2 (11727129_at) / RFU TMEM200A (11744735_a_at) / Fold change /veh TMEM200A (11744735_a_at) / RFU CCDC152 (11751479_a_at) / Fold change /veh CCDC152 (11751479_a_at) / RFU FAM211A (11726209_a_at) / Fold change /veh FAM211A (11726209_a_at) / RFU RGS16 (11746705_a_at) / Fold change /veh RGS16 (11746705_a_at) / RFU VCAN (11755009_s_at) / Fold change /veh VCAN (11755009_s_at) / RFU RHOB (11743442_s_at) / Fold change /veh RHOB (11743442_s_at) / RFU RGS16 (11720943_a_at) / Fold change /veh RGS16 (11720943_a_at) / RFU RGS16 (11720944_at) / Fold change /veh RGS16 (11720944_at) / RFU, VPS4B / Fold change vs veh, VPS4B / RFU, CREB1 / Fold change vs veh, CREB1 / RFU, DNAJC13 / Fold change vs veh, DNAJC13 / RFU, GNAQ / Fold change vs veh, GNAQ / RFU, CDK5R1 / Fold change vs veh, CDK5R1 / RFU, ZRANB3 / Fold change vs veh, ZRANB3 / RFU, CUL4A / Fold change vs veh, CUL4A / RFU, CCNY / Fold change vs veh, CCNY / RFU, UFL1 / Fold change vs veh, UFL1 / RFU, COG3 / Fold change vs veh, COG3 / RFU, DIAPH2 / Fold change vs veh, DIAPH2 / RFU, SKA2 / Fold change vs veh, SKA2 / RFU, AFF3 / Fold change vs veh, AFF3 / RFU, LMF1 / Fold change vs veh, LMF1 / RFU, IPO11 / Fold change vs veh, IPO11 / RFU, DFFB / Fold change vs veh, DFFB / RFU, FOXP1 / Fold change vs veh, FOXP1 / RFU, CARD8 / Fold change vs veh, CARD8 / RFU, STRN3 / Fold change vs veh, STRN3 / RFU, ADK / Fold change vs veh, ADK / RFU, RASSF2 / Fold change vs veh, RASSF2 / RFU, WIPF1 / Fold change vs veh, WIPF1 / RFU, LARP1B / Fold change vs veh, LARP1B / RFU, RASA1 / Fold change vs veh, RASA1 / RFU, RB1 / Fold change vs veh, RB1 / RFU, PPFIA1 / Fold change vs veh, PPFIA1 / RFU, MAT2A / Fold change vs veh, MAT2A / RFU, CCT5 / Fold change vs veh, CCT5 / RFU, WDR92 / Fold change vs veh, WDR92 / RFU, CUX1 / Fold change vs veh, CUX1 / RFU, TTC7A / Fold change vs veh, TTC7A / RFU, TMEM135 / Fold change vs veh, TMEM135 / RFU, DEPTOR / Fold change vs veh, DEPTOR / RFU, CPM / Fold change vs veh, CPM / RFU, DNAJB6 / Fold change vs veh, DNAJB6 / RFU, CACNA2D3 / Fold change vs veh, CACNA2D3 / RFU, DTX4 / Fold change vs veh, DTX4 / RFU, TFCP2 / Fold change vs veh, TFCP2 / RFU, GMCL1 /// GMCL1P1 / Fold change vs veh, GMCL1 /// GMCL1P1 / RFU, AEBP2 / Fold change vs veh, AEBP2 / RFU, SNHG1 /// SNORD22 /// SNORD25 /// SNORD26 /// SNORD27 /// SNORD28 /// SNORD29 /// SNORD31 / Fold change vs veh, SNHG1 /// SNORD22 /// SNORD25 /// SNORD26 /// SNORD27 /// SNORD28 /// SNORD29 /// SNORD31 / Fold change (Aza/veh), C12orf56 (ProbeSet 11735607_a_at) / Fold change (ACY-1035/veh), C12orf56 (ProbeSet 11735607_a_at) / Fold change (Aza/veh), FGFR1OP (ProbeSet 11751329_s_at) / Fold change (ACY-1035/veh), FGFR1OP (ProbeSet 11751329_s_at) / Fold change (Aza/veh), VPS36 (ProbeSet 11739960_a_at) / Fold change (ACY-1035/veh), VPS36 (ProbeSet 11739960_a_at) / RFU SYPL1 (11715823_x_at) / Fold change /veh SYPL1 (11715823_x_at) / RFU IGFBP7 (11715501_s_at) / Fold change /veh IGFBP7 (11715501_s_at) / RFU REEP3 (11722064_at) / Fold change /veh REEP3 (11722064_at) / RFU IGLL1 (11728026_x_at) / Fold change /veh IGLL1 (11728026_x_at): dose or concentration left out as unconfirmed. Conditions: ProbeSet 11721559_s_at; LIST B.

The values that follow come from publication PMC5218480 (PLoS ONE, 2017).

Structures are written as SMILES.

For `Nc1ncn([C@@H]2O[C@H](CO)[C@@H](O)[C@H]2O)c(=O)n1` [azacitidine], the “RFU, ZNF638 /// ZNF638-IT1” value amounted to 347.20 RFU.
